Experimental data from the supplement of paper PMC4862054.

How the values were obtained:
Conditions in all cases: incubation time: 72 h
BT-474 [1] = assay: normalised viability (% of control), CellTiter-Blue; higher = more viable cells (about 100 = DMSO control)
Procedure, shortened: (§1)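 Each value is normalised viability at a single listed concentration of the series. Breast cancer cell lines in 384-well plates were incubated 72 h with compound and read by CellTiter-Blue fluorescence at 560/590 nm, with vehicle set to 100 and a positive kill control to 0 on every plate.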

HCC1937 [2] = assay: as above
Procedure, shortened: as §1

CAL-51 [3] = assay: as above
Procedure, shortened: as §1

MDA-MB-453 [4] = assay: as above
Procedure, shortened: as §1

BT-549 [5] = assay: as above
Procedure, shortened: as §1

DU-4475 [6] = assay: as above
Procedure, shortened: as §1

MDA-MB-468 = assay: drug sensitivity score (DSS), CellTox Green (DSS (AUC-based score)); higher = stronger drug effect (viability inhibition or cytotoxicity); extreme values may be limits of the assay
Procedure, shortened: (§2)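 The area under the fitted dose-response curve was used to calculate the drug sensitivity score. Cells from breast cancer lines were incubated for 72 h in 384-well plates with compound at 5 concentrations spaced 10-fold over a 10,000-fold range specific to each compound. Plates were read for CellTox Green and then CellTiter-Glo, and normalised to 0.1 % DMSO and a positive kill control.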

MCF-10A = assay: as above
Procedure, shortened: as §2

BT-474 [7] = assay: as above
Procedure, shortened: as §2

HCC1937 [8] = assay: as above
Procedure, shortened: as §2

HCC1143 = assay: as above
Procedure, shortened: as §2

CAL-51 [9] = assay: as above
Procedure, shortened: as §2

Hs578T = assay: as above
Procedure, shortened: as §2

MDA-MB-436 = assay: as above
Procedure, shortened: as §2

HDQ-P1 = assay: as above
Procedure, shortened: as §2

CAL-148 = assay: as above
Procedure, shortened: as §2

MFM-223 = assay: as above
Procedure, shortened: as §2

MDA-MB-453 [10] = assay: as above
Procedure, shortened: as §2

MDA-MB-231 = assay: as above
Procedure, shortened: as §2

CAL-120 = assay: as above
Procedure, shortened: as §2

CAL-85-1 = assay: as above
Procedure, shortened: as §2

BT-549 [11] = assay: as above
Procedure, shortened: as §2

DU-4475 [12] = assay: as above
Procedure, shortened: as §2

HCC1599 = assay: as above
Procedure, shortened: as §2

Row | SMILES | normalised viability (BT-474 [1]; 10000 nM) [%] | normalised viability (HCC1937 [2]; 10000 nM) [%] | drug sensitivity score (MDA-MB-468) | drug sensitivity score (MCF-10A) | drug sensitivity score (BT-474 [7]) | drug sensitivity score (HCC1937 [8]) | drug sensitivity score (HCC1143) | drug sensitivity score (CAL-51 [9]) | drug sensitivity score (Hs578T) | drug sensitivity score (MDA-MB-436) | drug sensitivity score (HDQ-P1) | drug sensitivity score (CAL-148) | drug sensitivity score (MFM-223) | drug sensitivity score (MDA-MB-453 [10]) | drug sensitivity score (MDA-MB-231) | drug sensitivity score (CAL-120) | drug sensitivity score (CAL-85-1) | drug sensitivity score (BT-549 [11]) | drug sensitivity score (DU-4475 [12]) | drug sensitivity score (HCC1599) | other results
1 | CS(=O)(=O)OCCCCOS(C)(=O)=O [Busulfan] | 114 | 83.1 | 3.07 | 0 | 0 | 0 | 0 | 0 | 0 | 0 | 2.69 | 0 | 0 | 0 | 0 | 0 | 0 | 0 | 0 | 0 | normalised viability (BT-474 [1]; 100 nM): 107%; normalised viability (BT-474 [1]; 100000 nM): 108%; normalised viability (HCC1937 [2]; 100 nM): 86.4%; normalised viability (HCC1937 [2]; 100000 nM): 43.7%; normalised viability (CAL-51 [3]; 30 nM): 103%; normalised viability (CAL-51 [3]; 300 nM): 95.4%; normalised viability (CAL-51 [3]; 1000 nM): 94.6%; normalised viability (MDA-MB-453 [4]; 30 nM): 95.9%; normalised viability (MDA-MB-453 [4]; 300 nM): 101%; normalised viability (MDA-MB-453 [4]; 1000 nM): 104%; normalised viability (BT-549 [5]; 100 nM): 84%; normalised viability (BT-549 [5]; 10000 nM): 92.4%; normalised viability (BT-549 [5]; 100000 nM): 68.2%; normalised viability (DU-4475 [6]; 30 nM): 96.1%; normalised viability (DU-4475 [6]; 300 nM): 89.2%; normalised viability (DU-4475 [6]; 1000 nM): 94.7%
2 | COC1=C2C[C@@H](C)C[C@H](OC)[C@H](O)[C@@H](C)/C=C(\C)[C@H](OC(N)=O)[C@@H](OC)/C=C\C=C(/C)C(=O)NC(=CC1=O)C2=O [Geldanamycin] | 16.4 | 21.3 | 25 | 7.09 | 2.54 | 6.9 | 0 | 1.35 | 0 | 0 | 0 | 0 | 2.69 | 0 | 4.3 | 0 | 6.66 | 0 | 0.88 | 0 | normalised viability (BT-474 [1]; 10 nM): 127%; normalised viability (BT-474 [1]; 1000 nM): 18.5%; normalised viability (HCC1937 [2]; 10 nM): 115%; normalised viability (HCC1937 [2]; 1000 nM): 30.1%; normalised viability (CAL-51 [3]; 3 nM): 109%; normalised viability (CAL-51 [3]; 30 nM): 100%; normalised viability (CAL-51 [3]; 100 nM): 95.4%; normalised viability (MDA-MB-453 [4]; 3 nM): 121%; normalised viability (MDA-MB-453 [4]; 30 nM): 97.3%; normalised viability (MDA-MB-453 [4]; 100 nM): 51.3%; normalised viability (BT-549 [5]; 10 nM): 89.7%; normalised viability (BT-549 [5]; 1000 nM): 18%; normalised viability (BT-549 [5]; 10000 nM): 15.9%; normalised viability (DU-4475 [6]; 3 nM): 106%; normalised viability (DU-4475 [6]; 30 nM): 113%; normalised viability (DU-4475 [6]; 100 nM): 73.2%
3 | O=C(c1ccc(OCCN2CCCCC2)cc1)c1c(-c2ccc(O)cc2)sc2cc(O)ccc12 [Raloxifene] | 113 | 96.2 | 0 | 0 | 0 | 0 | 0 | 0 | 2.23 | 0 | 1.26 | 0 | 0 | 0 | 0 | 1.42 | 0 | 0 | 0 | 0.798 | normalised viability (BT-474 [1]; 10 nM): 100%; normalised viability (BT-474 [1]; 1000 nM): 103%; normalised viability (HCC1937 [2]; 10 nM): 89.3%; normalised viability (HCC1937 [2]; 1000 nM): 93.3%; normalised viability (CAL-51 [3]; 3 nM): 102%; normalised viability (CAL-51 [3]; 30 nM): 99.7%; normalised viability (CAL-51 [3]; 100 nM): 93.7%; normalised viability (MDA-MB-453 [4]; 3 nM): 106%; normalised viability (MDA-MB-453 [4]; 30 nM): 97.5%; normalised viability (MDA-MB-453 [4]; 100 nM): 92.4%; normalised viability (BT-549 [5]; 10 nM): 77.5%; normalised viability (BT-549 [5]; 1000 nM): 101%; normalised viability (BT-549 [5]; 10000 nM): 56.8%; normalised viability (DU-4475 [6]; 3 nM): 105%; normalised viability (DU-4475 [6]; 30 nM): 108%; normalised viability (DU-4475 [6]; 100 nM): 104%
4 | C#Cc1cccc(Nc2ncnc3cc(OC)c(OCCCCCCC(=O)NO)cc23)c1 [CUDC-101] | 3.84 | 14.6 | 13 | 1.27 | 6.29 | 0 | 0 | 6.83 | 2.25 | 5.42 | 0 | 8.84 | 5.86 | 4.37 | 12.7 | 3.78 | 20.1 | 0 | 2.65 | 0 | normalised viability (BT-474 [1]; 10 nM): 108%; normalised viability (BT-474 [1]; 1000 nM): 28.2%; normalised viability (HCC1937 [2]; 10 nM): 71.7%; normalised viability (HCC1937 [2]; 1000 nM): 45.4%; normalised viability (CAL-51 [3]; 3 nM): 117%; normalised viability (CAL-51 [3]; 30 nM): 108%; normalised viability (CAL-51 [3]; 100 nM): 105%; normalised viability (MDA-MB-453 [4]; 3 nM): 99.7%; normalised viability (MDA-MB-453 [4]; 30 nM): 67.3%; normalised viability (MDA-MB-453 [4]; 100 nM): 65.3%; normalised viability (BT-549 [5]; 10 nM): 90.3%; normalised viability (BT-549 [5]; 1000 nM): 64.6%; normalised viability (BT-549 [5]; 10000 nM): 9.13%; normalised viability (DU-4475 [6]; 3 nM): 84%; normalised viability (DU-4475 [6]; 30 nM): 84.7%; normalised viability (DU-4475 [6]; 100 nM): 80.8%
5 | CN1CCN(c2ccc3nc(-c4c(N)c5c(F)cccc5[nH]c4=O)[nH]c3c2)CC1 [Dovitinib] | 121 | 76.9 | 0 | 0 | 0 | 0 | 0 | 0 | 4.14 | 0 | 0 | 0 | 0 | 0 | 0.731 | 0 | 0 | 0 | 0 | 0 | normalised viability (BT-474 [1]; 10 nM): 111%; normalised viability (BT-474 [1]; 1000 nM): 97.4%; normalised viability (HCC1937 [2]; 10 nM): 116%; normalised viability (HCC1937 [2]; 1000 nM): 80.7%; normalised viability (CAL-51 [3]; 3 nM): 119%; normalised viability (CAL-51 [3]; 30 nM): 113%; normalised viability (CAL-51 [3]; 100 nM): 107%; normalised viability (MDA-MB-453 [4]; 3 nM): 114%; normalised viability (MDA-MB-453 [4]; 30 nM): 82.3%; normalised viability (MDA-MB-453 [4]; 100 nM): 84%; normalised viability (BT-549 [5]; 10 nM): 83%; normalised viability (BT-549 [5]; 1000 nM): 97.1%; normalised viability (BT-549 [5]; 10000 nM): 89%; normalised viability (DU-4475 [6]; 3 nM): 94.3%; normalised viability (DU-4475 [6]; 30 nM): 85.5%; normalised viability (DU-4475 [6]; 100 nM): 89.4%
6 | C[C@@H]1CCN(C(=O)CC#N)C[C@@H]1N(C)c1ncnc2[nH]ccc12 [Tofacitinib] |  |  | 0 | 0 | 0 | 0 | 0 | 0 | 0 | 0 | 0 | 0 | 0 | 0 | 0 | 0 | 0 | 0 | 0 | 0 | 
